Experimental data: US20080008674A1, “Use of C-glycoside derivative for improving the skin's barrier function” (L'OREAL, priority 2006, published 2008)
Marks after values point to notes of the source that are not given here.

Test system: reconstructed epidermis (Episkin J13)
Test: Penetration of radiolabelled caffeine through reconstructed human epidermis (barrier function)
Type: cell-based
Details: for passage of [14C]-caffeine, percentage of passage relative to an untreated control: 5 days treatment
Experimental: The efficacy of the barrier function of a skin may be evaluated by measuring the passage through it of a labelled molecule, for instance radiolabelled caffeine.
Skin with an improved barrier function is thus characterized in that it slows down, or even reduces, the passage of the said molecule through its epidermis.
Two batches of reconstructed epidermis (Episkin J13) (batches 1 and 2) are treated for 5 days with the product C-β-D-xylopyranoside-n-propan-2-one, which is applied in the culture medium at a final concentration of 0.2% and 0.04% by weight/volume.
Vitamin C is used as reference molecule at a concentration of 200 μg/ml, in systemic treatment.
After 5 days of culturing, 100 μl and 2 UCi/ml, i.e. 0.04 mM of [^14C]-caffeine (radiolabelled caffeine) and 0.35 mM of cold caffeine (non-radiolabelled caffeine) are applied to the surface, and kinetics of uptake into the medium are determined at eight different times.
The results are expressed as a percentage of passage relative to an untreated control.

Structure (SMILES): O=C1O[C@H]([C@@H](O)CO)C(O)=C1O [Vitamin C, reference compound]
- passage of [14C]-caffeine, percentage of passage relative to an untreated control (Batch 1 of reconstructed epidermis, 200 μg/ml, sample taken at 1 h 30): 81%
- passage of [14C]-caffeine, percentage of passage relative to an untreated control (Batch 1 of reconstructed epidermis, 200 μg/ml, sample taken at 3 h): 95%
- passage of [14C]-caffeine, percentage of passage relative to an untreated control (Batch 1 of reconstructed epidermis, 200 μg/ml, sample taken at 4 h): 81%
- passage of [14C]-caffeine, percentage of passage relative to an untreated control (Batch 1 of reconstructed epidermis, 200 μg/ml, sample taken at 5 h): 80 * %
- passage of [14C]-caffeine, percentage of passage relative to an untreated control (Batch 1 of reconstructed epidermis, 200 μg/ml, sample taken at 6 h): 86%
- passage of [14C]-caffeine, percentage of passage relative to an untreated control (Batch 1 of reconstructed epidermis, 200 μg/ml, sample taken at 7 h): 75 * %
- passage of [14C]-caffeine, percentage of passage relative to an untreated control (Batch 1 of reconstructed epidermis, 200 μg/ml, sample taken at 9 h): 85%
- passage of [14C]-caffeine, percentage of passage relative to an untreated control (Batch 1 of reconstructed epidermis, 200 μg/ml, sample taken at 24 h): 85%
- passage of [14C]-caffeine, percentage of passage relative to an untreated control (Batch 2 of reconstructed epidermis, 200 μg/ml, sample taken at 1 h): 117%
- passage of [14C]-caffeine, percentage of passage relative to an untreated control (Batch 2 of reconstructed epidermis, 200 μg/ml, sample taken at 2 h): 77 * %
- passage of [14C]-caffeine, percentage of passage relative to an untreated control (Batch 2 of reconstructed epidermis, 200 μg/ml, sample taken at 3 h): 84%
- passage of [14C]-caffeine, percentage of passage relative to an untreated control (Batch 2 of reconstructed epidermis, 200 μg/ml, sample taken at 4 h): 86 * %
- passage of [14C]-caffeine, percentage of passage relative to an untreated control (Batch 2 of reconstructed epidermis, 200 μg/ml, sample taken at 5 h): 71 * %
- passage of [14C]-caffeine, percentage of passage relative to an untreated control (Batch 2 of reconstructed epidermis, 200 μg/ml, sample taken at 6 h): 94%
- passage of [14C]-caffeine, percentage of passage relative to an untreated control (Batch 2 of reconstructed epidermis, 200 μg/ml, sample taken at 7 h): 95%
- passage of [14C]-caffeine, percentage of passage relative to an untreated control (Batch 2 of reconstructed epidermis, 200 μg/ml, sample taken at 8 h): 96%
- passage of [14C]-caffeine, percentage of passage relative to an untreated control (Batch 2 of reconstructed epidermis, 200 μg/ml, sample taken at 9 h): 85%
- passage of [14C]-caffeine, percentage of passage relative to an untreated control (Batch 2 of reconstructed epidermis, 200 μg/ml, sample taken at 10 h): 95%
- passage of [14C]-caffeine, percentage of passage relative to an untreated control (Batch 2 of reconstructed epidermis, 200 μg/ml, sample taken at 24 h): 99%

Structure (SMILES): CC(=O)C[C@@H]1OC[C@@H](O)[C@H](O)[C@H]1O [C-β-D-xylopyranoside-n-propan-2-one]
- passage of [14C]-caffeine, percentage of passage relative to an untreated control (Batch 1 of reconstructed epidermis, 0.04% AM, sample taken at 1 h 30): 52%
- passage of [14C]-caffeine, percentage of passage relative to an untreated control (Batch 1 of reconstructed epidermis, 0.04% AM, sample taken at 3 h): 66%
- passage of [14C]-caffeine, percentage of passage relative to an untreated control (Batch 1 of reconstructed epidermis, 0.04% AM, sample taken at 4 h): 64 * %
- passage of [14C]-caffeine, percentage of passage relative to an untreated control (Batch 1 of reconstructed epidermis, 0.04% AM, sample taken at 5 h): 73 * %
- passage of [14C]-caffeine, percentage of passage relative to an untreated control (Batch 1 of reconstructed epidermis, 0.04% AM, sample taken at 6 h): 70 * %
- passage of [14C]-caffeine, percentage of passage relative to an untreated control (Batch 1 of reconstructed epidermis, 0.04% AM, sample taken at 7 h): 69 * %
- passage of [14C]-caffeine, percentage of passage relative to an untreated control (Batch 1 of reconstructed epidermis, 0.04% AM, sample taken at 9 h): 77 * %
- passage of [14C]-caffeine, percentage of passage relative to an untreated control (Batch 1 of reconstructed epidermis, 0.04% AM, sample taken at 24 h): 75 * %
- passage of [14C]-caffeine, percentage of passage relative to an untreated control (Batch 1 of reconstructed epidermis, 0.2% AM, sample taken at 1 h 30): 66%
- passage of [14C]-caffeine, percentage of passage relative to an untreated control (Batch 1 of reconstructed epidermis, 0.2% AM, sample taken at 3 h): 94%
- passage of [14C]-caffeine, percentage of passage relative to an untreated control (Batch 1 of reconstructed epidermis, 0.2% AM, sample taken at 4 h): 59 * %
- passage of [14C]-caffeine, percentage of passage relative to an untreated control (Batch 1 of reconstructed epidermis, 0.2% AM, sample taken at 5 h): 63 * %
- passage of [14C]-caffeine, percentage of passage relative to an untreated control (Batch 1 of reconstructed epidermis, 0.2% AM, sample taken at 6 h): 63 * %
- passage of [14C]-caffeine, percentage of passage relative to an untreated control (Batch 1 of reconstructed epidermis, 0.2% AM, sample taken at 7 h): 66 * %
- passage of [14C]-caffeine, percentage of passage relative to an untreated control (Batch 1 of reconstructed epidermis, 0.2% AM, sample taken at 9 h): 79 * %
- passage of [14C]-caffeine, percentage of passage relative to an untreated control (Batch 1 of reconstructed epidermis, 0.2% AM, sample taken at 24 h): 70 * %
- passage of [14C]-caffeine, percentage of passage relative to an untreated control (Batch 2 of reconstructed epidermis, 0.04% AM, sample taken at 1 h): 143%
- passage of [14C]-caffeine, percentage of passage relative to an untreated control (Batch 2 of reconstructed epidermis, 0.04% AM, sample taken at 2 h): 65 * %
- passage of [14C]-caffeine, percentage of passage relative to an untreated control (Batch 2 of reconstructed epidermis, 0.04% AM, sample taken at 3 h): 92%
- passage of [14C]-caffeine, percentage of passage relative to an untreated control (Batch 2 of reconstructed epidermis, 0.04% AM, sample taken at 4 h): 78 * %
- passage of [14C]-caffeine, percentage of passage relative to an untreated control (Batch 2 of reconstructed epidermis, 0.04% AM, sample taken at 5 h): 84%
- passage of [14C]-caffeine, percentage of passage relative to an untreated control (Batch 2 of reconstructed epidermis, 0.04% AM, sample taken at 6 h): 80 * %
- passage of [14C]-caffeine, percentage of passage relative to an untreated control (Batch 2 of reconstructed epidermis, 0.04% AM, sample taken at 7 h): 91%
- passage of [14C]-caffeine, percentage of passage relative to an untreated control (Batch 2 of reconstructed epidermis, 0.04% AM, sample taken at 8 h): 88 * %
- passage of [14C]-caffeine, percentage of passage relative to an untreated control (Batch 2 of reconstructed epidermis, 0.04% AM, sample taken at 9 h): 93%
- passage of [14C]-caffeine, percentage of passage relative to an untreated control (Batch 2 of reconstructed epidermis, 0.04% AM, sample taken at 10 h): 85 * %
- passage of [14C]-caffeine, percentage of passage relative to an untreated control (Batch 2 of reconstructed epidermis, 0.04% AM, sample taken at 24 h): 99%
- passage of [14C]-caffeine, percentage of passage relative to an untreated control (Batch 2 of reconstructed epidermis, 0.2% AM, sample taken at 1 h): 162%
- passage of [14C]-caffeine, percentage of passage relative to an untreated control (Batch 2 of reconstructed epidermis, 0.2% AM, sample taken at 2 h): 61 * %
- passage of [14C]-caffeine, percentage of passage relative to an untreated control (Batch 2 of reconstructed epidermis, 0.2% AM, sample taken at 3 h): 82%
- passage of [14C]-caffeine, percentage of passage relative to an untreated control (Batch 2 of reconstructed epidermis, 0.2% AM, sample taken at 4 h): 67 * %
- passage of [14C]-caffeine, percentage of passage relative to an untreated control (Batch 2 of reconstructed epidermis, 0.2% AM, sample taken at 5 h): 75 * %
- passage of [14C]-caffeine, percentage of passage relative to an untreated control (Batch 2 of reconstructed epidermis, 0.2% AM, sample taken at 6 h): 75 * %
- passage of [14C]-caffeine, percentage of passage relative to an untreated control (Batch 2 of reconstructed epidermis, 0.2% AM, sample taken at 7 h): 84 * %
- passage of [14C]-caffeine, percentage of passage relative to an untreated control (Batch 2 of reconstructed epidermis, 0.2% AM, sample taken at 8 h): 80 * %
- passage of [14C]-caffeine, percentage of passage relative to an untreated control (Batch 2 of reconstructed epidermis, 0.2% AM, sample taken at 9 h): 88%
- passage of [14C]-caffeine, percentage of passage relative to an untreated control (Batch 2 of reconstructed epidermis, 0.2% AM, sample taken at 10 h): 80 * %
- passage of [14C]-caffeine, percentage of passage relative to an untreated control (Batch 2 of reconstructed epidermis, 0.2% AM, sample taken at 24 h): 95%
- slowing down of caffeine passage compared with vitamin C (reference molecule) (result in words, comparison with vitamin C 200 μg/ml): greater
- effect on the passage of the radiolabelled caffeine through the reconstructed epidermides (barrier function) (result in words, two batches of reconstructed epidermis): slows down the passage of the radiolabelled caffeine
